Positions of bridges follow the written chain, without caps; N, C: chain ends. Non-standard residues stand in square brackets, D forms with d. Residues, ends and D or L forms follow the SMILES beside them.
How the values were obtained:
[1] = biological target: human SSTR-3 (Homo sapiens, UniProt P32745); assay: Somatostatin receptor binding assay, [125I-Tyr11]somatostatin-14, membranes of transfected CHO-K1 cells; settings: 0.05 nM [125I-Tyr11]somatostatin-14, 30 min at 30° C., Ki=IC50/[1+(LC/LEC)], read-out: Ki hSSTR-3
[2] = biological target: human SSTR-5 (Homo sapiens, UniProt P35346); assay: as above; settings: 0.05 nM [125I-Tyr11]somatostatin-14, 30 min at 30° C., Ki=IC50/[1+(LC/LEC)], read-out: Ki hSSTR-5
Chain of human SSTR-5 (P35346 whole entry): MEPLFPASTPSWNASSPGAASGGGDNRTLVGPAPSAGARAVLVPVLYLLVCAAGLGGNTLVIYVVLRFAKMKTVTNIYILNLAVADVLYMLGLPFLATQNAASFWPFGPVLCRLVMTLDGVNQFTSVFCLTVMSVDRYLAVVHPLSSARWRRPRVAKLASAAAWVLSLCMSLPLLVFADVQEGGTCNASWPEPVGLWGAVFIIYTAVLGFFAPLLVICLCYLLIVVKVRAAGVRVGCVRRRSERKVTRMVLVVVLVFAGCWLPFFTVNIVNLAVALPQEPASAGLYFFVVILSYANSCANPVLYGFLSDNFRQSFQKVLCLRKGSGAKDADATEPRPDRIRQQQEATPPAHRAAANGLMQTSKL

Chain of human SSTR-3 (P32745 whole entry): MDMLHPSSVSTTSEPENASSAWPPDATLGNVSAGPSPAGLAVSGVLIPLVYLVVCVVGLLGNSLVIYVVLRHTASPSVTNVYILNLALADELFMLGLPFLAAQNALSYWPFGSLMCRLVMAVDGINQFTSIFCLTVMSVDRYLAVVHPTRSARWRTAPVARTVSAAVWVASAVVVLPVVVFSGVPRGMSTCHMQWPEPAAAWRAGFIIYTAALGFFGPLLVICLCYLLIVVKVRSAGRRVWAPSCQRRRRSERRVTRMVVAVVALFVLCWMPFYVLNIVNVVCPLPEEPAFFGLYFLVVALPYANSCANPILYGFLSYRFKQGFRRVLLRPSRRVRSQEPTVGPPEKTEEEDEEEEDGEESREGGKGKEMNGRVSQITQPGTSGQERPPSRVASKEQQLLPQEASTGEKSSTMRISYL

Q: `C[C@@H](O)[C@@H]1NC(=O)[C@H](CCCCN)NC(=O)[C@@H](Cc2c[nH]c3ccccc23)NC(=O)[C@H](Cc2ccccc2)NC(=O)[C@H](Cc2ccccc2)NC(=O)[C@@H](N)CSSC[C@@H](C(N)=O)NC(=O)[C@H](Cc2ccccc2)NC1=O` [BIM-23268, H-Cys-Phe-Phe-D-Trp-Lys-Thr-Phe-Cys-NH2] (H-CFF[dW]KTFC-NH2; disulfide 1-8) was tested. Which Ki [1] did it give?
A: The Ki was 62 nM.

Q: And the Ki [2]?
A: The Ki was 0.38 nM.

Source: patent US7238666B2, “Method of inhibiting fibrosis with a somatostatin agonist” (Societe de Conseils de Recherches et d'Applications …, priority 1996, dated 2007)
